From ChEMBL document CHEMBL5465560, “Selectivity Literature for EUbOPEN Chemogenomic Library” (2024)
One block for each compound: values may come before it.

Assays:
[1] = molecular target: Receptor-type tyrosine-protein kinase FLT3 (Homo sapiens) (UniProt P36888); assay: Selectivity interaction (KinomeScan (DiscoverX)) EUB0000666a FLT3; conditions: at 10 µM
[2] = molecular target: T1, Atypical kinase COQ8B, mitochondrial (Homo sapiens) (UniProt Q96D53); assay: Selectivity interaction (KinomeScan (DiscoverX)) EUB0000607a ADCK4; conditions: at 10 µM
T1 sequence (whole entry): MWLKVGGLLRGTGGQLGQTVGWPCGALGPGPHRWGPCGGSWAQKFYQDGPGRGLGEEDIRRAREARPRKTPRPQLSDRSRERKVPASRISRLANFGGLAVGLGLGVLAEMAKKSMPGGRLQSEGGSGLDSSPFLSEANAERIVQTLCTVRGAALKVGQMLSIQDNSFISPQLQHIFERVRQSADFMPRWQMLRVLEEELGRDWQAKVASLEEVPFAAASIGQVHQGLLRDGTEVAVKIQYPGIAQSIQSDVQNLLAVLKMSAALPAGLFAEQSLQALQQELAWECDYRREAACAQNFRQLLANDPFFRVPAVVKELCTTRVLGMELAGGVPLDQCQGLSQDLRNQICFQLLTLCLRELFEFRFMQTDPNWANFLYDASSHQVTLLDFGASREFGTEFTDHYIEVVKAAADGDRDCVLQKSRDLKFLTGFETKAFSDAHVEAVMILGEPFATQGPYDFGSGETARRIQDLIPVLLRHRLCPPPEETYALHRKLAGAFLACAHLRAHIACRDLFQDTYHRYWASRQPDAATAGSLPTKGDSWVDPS

[3] = molecular target: T2, NUAK family SNF1-like kinase 2 (Homo sapiens) (UniProt Q9H093); conditions: at 10 µM
T2 sequence (whole entry): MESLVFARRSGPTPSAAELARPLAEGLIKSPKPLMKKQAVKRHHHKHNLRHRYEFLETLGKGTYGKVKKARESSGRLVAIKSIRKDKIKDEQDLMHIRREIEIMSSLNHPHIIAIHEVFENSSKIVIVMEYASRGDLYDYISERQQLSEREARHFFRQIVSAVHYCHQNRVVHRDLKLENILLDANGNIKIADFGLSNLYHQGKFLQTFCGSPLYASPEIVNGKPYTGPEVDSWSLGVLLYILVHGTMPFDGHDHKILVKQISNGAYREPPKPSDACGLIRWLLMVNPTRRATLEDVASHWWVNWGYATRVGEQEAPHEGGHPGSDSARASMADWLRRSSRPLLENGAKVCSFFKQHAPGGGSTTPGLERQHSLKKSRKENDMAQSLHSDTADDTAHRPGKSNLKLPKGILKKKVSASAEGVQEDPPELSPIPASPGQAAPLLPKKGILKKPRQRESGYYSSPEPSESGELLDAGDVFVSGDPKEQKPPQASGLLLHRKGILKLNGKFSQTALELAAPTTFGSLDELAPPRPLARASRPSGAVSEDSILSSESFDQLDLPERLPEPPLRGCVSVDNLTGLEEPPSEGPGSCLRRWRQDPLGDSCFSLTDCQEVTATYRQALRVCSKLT

[4] = molecular target: T3, Serine/threonine-protein kinase DCLK2 (Homo sapiens) (UniProt Q8N568); assay: Selectivity interaction (ProQinase) EUB0000171b DCLK2
T3 sequence (whole entry): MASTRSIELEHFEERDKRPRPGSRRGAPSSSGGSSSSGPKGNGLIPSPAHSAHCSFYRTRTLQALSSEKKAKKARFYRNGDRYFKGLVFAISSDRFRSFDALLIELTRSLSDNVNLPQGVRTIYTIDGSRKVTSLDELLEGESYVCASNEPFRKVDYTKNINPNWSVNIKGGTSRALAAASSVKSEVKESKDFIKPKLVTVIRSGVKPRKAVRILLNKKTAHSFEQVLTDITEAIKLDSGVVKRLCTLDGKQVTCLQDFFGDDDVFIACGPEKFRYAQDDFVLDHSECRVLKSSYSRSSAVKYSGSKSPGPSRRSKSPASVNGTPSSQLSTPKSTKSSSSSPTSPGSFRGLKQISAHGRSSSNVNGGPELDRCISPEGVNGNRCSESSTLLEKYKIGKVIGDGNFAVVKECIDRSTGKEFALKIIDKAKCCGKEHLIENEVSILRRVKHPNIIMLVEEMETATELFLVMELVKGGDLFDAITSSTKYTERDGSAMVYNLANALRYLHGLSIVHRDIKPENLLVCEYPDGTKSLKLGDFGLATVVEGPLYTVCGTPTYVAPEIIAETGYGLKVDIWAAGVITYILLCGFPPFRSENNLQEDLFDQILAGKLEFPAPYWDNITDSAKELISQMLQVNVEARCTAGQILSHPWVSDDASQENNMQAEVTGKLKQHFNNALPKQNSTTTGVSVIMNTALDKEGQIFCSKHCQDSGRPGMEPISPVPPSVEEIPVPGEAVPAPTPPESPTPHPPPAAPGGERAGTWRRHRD

[5] = molecular target: Citron Rho-interacting kinase (Homo sapiens) (UniProt O14578); assay: Selectivity interaction (KinomeScan (DiscoverX)) EUB0001079a CIT; conditions: at 1 µM
[6] = molecular target: Bromodomain-containing protein 4 (Homo sapiens, UniProt O60885); assay: Selectivity interaction (Bromodomain panel (DSF asssay)) EUB0000270b BRD4
[7] = molecular target: T4, cGMP-dependent protein kinase 2 (Homo sapiens) (UniProt Q13237); assay: Selectivity interaction (KinomeScan (DiscoverX)) EUB0000618a PRKG2; conditions: at 10 µM
T4 sequence (whole entry): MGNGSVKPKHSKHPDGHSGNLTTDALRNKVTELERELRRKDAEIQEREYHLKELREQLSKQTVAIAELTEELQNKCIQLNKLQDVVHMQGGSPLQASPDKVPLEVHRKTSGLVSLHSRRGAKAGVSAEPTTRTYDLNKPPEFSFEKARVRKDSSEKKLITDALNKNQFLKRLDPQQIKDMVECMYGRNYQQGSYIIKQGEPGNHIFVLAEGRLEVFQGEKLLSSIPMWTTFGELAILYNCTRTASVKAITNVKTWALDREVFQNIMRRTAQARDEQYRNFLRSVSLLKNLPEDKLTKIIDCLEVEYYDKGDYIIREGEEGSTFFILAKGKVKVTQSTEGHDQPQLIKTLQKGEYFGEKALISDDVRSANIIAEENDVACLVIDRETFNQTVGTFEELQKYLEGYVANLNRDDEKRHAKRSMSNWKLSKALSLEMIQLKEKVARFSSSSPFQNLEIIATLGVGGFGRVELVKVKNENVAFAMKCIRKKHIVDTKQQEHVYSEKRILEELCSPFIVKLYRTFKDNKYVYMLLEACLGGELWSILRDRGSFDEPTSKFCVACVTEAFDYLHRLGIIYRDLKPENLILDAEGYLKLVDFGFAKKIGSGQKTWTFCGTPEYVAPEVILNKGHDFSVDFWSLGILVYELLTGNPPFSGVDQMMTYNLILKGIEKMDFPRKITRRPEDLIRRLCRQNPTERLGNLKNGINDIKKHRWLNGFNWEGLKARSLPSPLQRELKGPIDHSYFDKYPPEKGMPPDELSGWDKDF

Citron Rho-interacting kinase (Homo sapiens), sequence (O14578 whole entry): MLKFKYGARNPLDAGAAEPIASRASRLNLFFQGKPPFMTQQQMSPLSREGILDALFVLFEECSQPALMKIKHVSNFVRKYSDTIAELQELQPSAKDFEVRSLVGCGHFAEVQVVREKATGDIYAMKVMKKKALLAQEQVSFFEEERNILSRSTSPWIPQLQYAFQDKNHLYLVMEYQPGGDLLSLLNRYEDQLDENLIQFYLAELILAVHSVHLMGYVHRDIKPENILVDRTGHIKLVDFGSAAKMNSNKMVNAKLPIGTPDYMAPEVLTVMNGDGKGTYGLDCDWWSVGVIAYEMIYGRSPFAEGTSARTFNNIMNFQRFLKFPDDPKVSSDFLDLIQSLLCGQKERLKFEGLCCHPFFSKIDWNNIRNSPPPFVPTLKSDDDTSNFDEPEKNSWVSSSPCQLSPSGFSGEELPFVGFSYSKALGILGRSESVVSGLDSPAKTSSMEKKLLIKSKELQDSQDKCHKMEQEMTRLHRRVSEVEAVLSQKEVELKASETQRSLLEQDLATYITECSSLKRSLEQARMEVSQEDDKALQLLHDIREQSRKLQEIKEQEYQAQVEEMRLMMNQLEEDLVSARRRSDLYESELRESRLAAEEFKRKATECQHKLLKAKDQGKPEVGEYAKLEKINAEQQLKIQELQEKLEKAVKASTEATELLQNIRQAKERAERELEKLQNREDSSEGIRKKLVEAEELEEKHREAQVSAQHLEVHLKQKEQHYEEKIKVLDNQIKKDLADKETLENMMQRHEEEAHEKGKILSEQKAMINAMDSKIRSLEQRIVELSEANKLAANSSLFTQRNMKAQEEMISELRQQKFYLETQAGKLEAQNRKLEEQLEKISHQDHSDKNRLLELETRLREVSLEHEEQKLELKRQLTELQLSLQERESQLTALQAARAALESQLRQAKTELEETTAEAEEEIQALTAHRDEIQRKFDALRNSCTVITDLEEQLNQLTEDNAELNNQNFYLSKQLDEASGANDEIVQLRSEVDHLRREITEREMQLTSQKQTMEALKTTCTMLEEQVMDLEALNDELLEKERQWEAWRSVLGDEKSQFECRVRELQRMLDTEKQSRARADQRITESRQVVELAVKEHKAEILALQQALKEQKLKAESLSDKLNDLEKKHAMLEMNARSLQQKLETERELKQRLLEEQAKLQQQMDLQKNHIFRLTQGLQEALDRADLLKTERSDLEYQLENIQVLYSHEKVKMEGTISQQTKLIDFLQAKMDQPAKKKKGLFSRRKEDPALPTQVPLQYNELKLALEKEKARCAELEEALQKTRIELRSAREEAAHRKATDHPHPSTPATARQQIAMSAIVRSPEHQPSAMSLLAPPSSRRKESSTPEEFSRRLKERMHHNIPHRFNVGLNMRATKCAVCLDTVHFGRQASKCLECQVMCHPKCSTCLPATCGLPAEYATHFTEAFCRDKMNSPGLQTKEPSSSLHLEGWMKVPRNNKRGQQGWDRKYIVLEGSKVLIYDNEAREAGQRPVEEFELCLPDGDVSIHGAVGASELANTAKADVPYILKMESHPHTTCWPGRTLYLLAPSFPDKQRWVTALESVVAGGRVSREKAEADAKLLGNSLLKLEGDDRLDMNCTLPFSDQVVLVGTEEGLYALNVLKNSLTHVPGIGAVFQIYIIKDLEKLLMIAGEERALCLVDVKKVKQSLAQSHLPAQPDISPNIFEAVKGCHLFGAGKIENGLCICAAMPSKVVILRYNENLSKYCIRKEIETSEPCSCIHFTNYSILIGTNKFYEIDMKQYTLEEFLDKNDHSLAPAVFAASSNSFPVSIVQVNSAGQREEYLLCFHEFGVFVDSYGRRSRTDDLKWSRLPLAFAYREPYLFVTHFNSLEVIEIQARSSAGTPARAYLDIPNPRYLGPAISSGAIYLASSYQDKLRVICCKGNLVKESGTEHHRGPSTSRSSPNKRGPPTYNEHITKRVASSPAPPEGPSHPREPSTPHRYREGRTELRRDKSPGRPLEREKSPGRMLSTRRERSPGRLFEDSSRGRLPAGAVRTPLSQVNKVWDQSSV
Receptor-type tyrosine-protein kinase FLT3 (Homo sapiens), sequence (P36888 whole entry): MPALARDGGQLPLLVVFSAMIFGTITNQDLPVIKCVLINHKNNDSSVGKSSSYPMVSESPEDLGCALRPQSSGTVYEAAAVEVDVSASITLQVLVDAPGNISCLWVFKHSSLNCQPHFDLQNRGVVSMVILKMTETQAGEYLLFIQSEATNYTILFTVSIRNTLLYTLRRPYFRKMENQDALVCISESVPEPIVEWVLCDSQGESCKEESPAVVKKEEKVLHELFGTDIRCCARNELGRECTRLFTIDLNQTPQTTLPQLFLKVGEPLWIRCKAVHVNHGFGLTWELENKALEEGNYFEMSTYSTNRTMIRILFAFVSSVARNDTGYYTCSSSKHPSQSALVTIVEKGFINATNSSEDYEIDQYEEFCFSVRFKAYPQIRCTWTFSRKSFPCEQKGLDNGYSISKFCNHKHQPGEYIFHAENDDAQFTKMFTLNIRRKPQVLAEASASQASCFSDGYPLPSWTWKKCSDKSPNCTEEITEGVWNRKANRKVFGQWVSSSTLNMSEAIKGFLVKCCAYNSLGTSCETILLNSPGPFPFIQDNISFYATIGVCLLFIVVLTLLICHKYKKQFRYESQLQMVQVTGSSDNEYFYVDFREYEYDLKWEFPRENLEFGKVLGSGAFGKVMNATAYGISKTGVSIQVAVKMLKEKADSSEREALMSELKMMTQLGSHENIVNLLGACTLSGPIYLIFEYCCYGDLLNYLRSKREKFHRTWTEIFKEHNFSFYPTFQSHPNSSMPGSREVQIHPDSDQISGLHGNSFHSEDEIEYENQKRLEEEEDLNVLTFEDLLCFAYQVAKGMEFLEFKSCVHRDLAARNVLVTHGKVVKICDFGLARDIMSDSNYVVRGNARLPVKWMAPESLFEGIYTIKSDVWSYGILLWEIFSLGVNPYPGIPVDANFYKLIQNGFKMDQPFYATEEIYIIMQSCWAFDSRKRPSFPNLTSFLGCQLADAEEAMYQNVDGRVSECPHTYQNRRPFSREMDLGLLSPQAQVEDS

SMILES: O=C(NOC[C@H](O)CO)c1ccc(F)c(F)c1Nc1ccc(I)cc1F
- % of control [1]: 80%

SMILES: CNC(=O)Nc1ccc(-c2nc(N3CC4CCC(C3)O4)c3cnn(C4CCC5(CC4)OCCO5)c3n2)cc1
- % of control [2]: 100%

- % of control [3]: 100%
SMILES: CCN(CC)CCCCNc1ncc2cc(-c3cc(OC)cc(OC)c3)c(NC(=O)NC(C)(C)C)nc2n1

- % of control ([4]; at 1 µM): 95%
- % of control ([4]; at 5 µM): 94%
SMILES: C=CC(=O)Nc1cccc(C(=O)Nc2ccc(Nc3cc(-c4[nH]c(SC)nc4C)ccn3)cc2)c1

SMILES: Nc1cnc(N2CCc3cc(S(=O)(=O)Nc4c(F)cc(Cl)cc4F)cc(N4CCCC4=O)c32)nc1 [TP-020n]
- % of control [5]: 91%

- dTM [6]: -1.68 K
SMILES: Cc1cc(CN)cc(C)c1-c1ncn(C)c1-c1cncn1C

SMILES: O[C@H]1CC[C@H](Nc2ncc3nc(Nc4c(F)cc(F)cc4F)n([C@H]4CCOC4)c3n2)CC1
- % of control [7]: 100%
